What was measured:
[1] = target: T1, 14-3-3γ/Tau pS214 complex (Homo sapiens, UniProt P61981); test: Differential scanning fluorimetry of 14-3-3γ with Tau pS214 peptide and compounds; assay type: binding; conditions: compound 30 equiv., Tau pS214 10 equiv.
T1 construct: made in house; host or cells: NiCo21 (DE3) E. coli
Procedure: (§1) Fig. 5 a Phospho-site selective 14-3-3/Tau PPI stabilization. b SF250μM of selected compounds for stabilization of the 14-3-3γ complex with Tau pS214 and Tau pS324 peptides based on the internal DMSO reference. Mean of two separately performed experiments (see ESI ^† Fig. S9 for the corresponding binding curves). c Differential scanning fluorimetry assay results. Identified melting temperatures (Tm) of 14-3-3γ in the presence of the Tau pS214 or pS324 peptide and compounds 1 and 18. […]
(§2) chromatography (HisTrap high performance cartridges, Cytiva). […] Dialyzed protein was concentrated to ∼40 mg/mL, analyzed by Q -Tof LC/MS, and aliquots were flash -frozen for storage at −80 °C. […]
(§3) DSF was performed using 40 µl samples containing 2.5 µM 14 -3-3ζ, 25 µM Tau peptide (Tau pS2, Tau pS214 or Tau pS324), […] (1% DMSO) and 5x ProteoOrange (Lumiprobe, 5000x stock in DMSO) in 10 mM HEPES, 150 mM NaCl, 50 µM TCEP (pH 7.4). […] Fluorescence intensity was determined using excitation ( λem=525/20 nm) and emission ( λex=570/20 nm) filters.
(§4) Based on these melting curves, the negative derivative melting curve is obtained from which the melting temperature Tm was determined. All described melting temperatures are based on two or three independent experiments, from which the average and standard deviations were determined. […]

[2] = target: T2, 14-3-3γ/Tau pS324 complex (Homo sapiens, UniProt P61981); test: Differential scanning fluorimetry of 14-3-3γ with Tau pS324 peptide and compounds; assay type: binding; conditions: compound 30 equiv., Tau pS324 10 equiv.
T2 construct: made in house; host or cells: NiCo21 (DE3) E. coli
Procedure: as §1, §2, §3, §4

T2 sequence (P61981 whole entry, other chains not shown): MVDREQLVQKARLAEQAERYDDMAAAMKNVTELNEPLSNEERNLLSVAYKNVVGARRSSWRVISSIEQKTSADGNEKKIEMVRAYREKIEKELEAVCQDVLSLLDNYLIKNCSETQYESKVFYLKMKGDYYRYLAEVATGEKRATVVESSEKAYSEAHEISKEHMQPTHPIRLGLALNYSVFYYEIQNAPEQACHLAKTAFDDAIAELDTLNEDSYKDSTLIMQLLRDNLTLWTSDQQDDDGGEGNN
T1 sequence (P61981 whole entry, other chains not shown): as above

O=Cc1ccc(-n2ccnc2-c2ccccc2)cc1Br [Compound 1]
increase in 14-3-3γ melting temperature on addition of compound, Tau pS214 complex [1]: ~0.6 °C
increase in 14-3-3γ melting temperature on addition of compound, Tau pS324 complex [2]: ~0.6 °C

CCc1ccc(-c2nccn2-c2ccc(C=O)c(Br)c2)cc1 [Compound 18]
increase in 14-3-3γ melting temperature on addition of compound, Tau pS214 complex [1]: ~1.7 °C
increase in 14-3-3γ melting temperature on addition of compound, Tau pS324 complex [2]: ~0.2 °C

From PMC11892739, “Site-specific molecular glues for the 14-3-3/Tau pS214 protein–protein interaction via reversible covalent imine tethering” (RSC Medicinal Chemistry, 2025)
